# In ChEMBL document CHEMBL3045695, “2D and 3D QSAR analyses to predict favorable substitution sites in anilino-monoindolylmaleimides acting as PKCII selective inhibitors” (Med Chem Res, 2011):
# Biological target: Protein kinase C beta type (Homo sapiens, UniProt P05771)
# Test: Inhibition of PKCbeta2 (unknown origin)
# Conditions: read-out: IC50
# Sequence of Protein kinase C beta type (P05771 whole entry): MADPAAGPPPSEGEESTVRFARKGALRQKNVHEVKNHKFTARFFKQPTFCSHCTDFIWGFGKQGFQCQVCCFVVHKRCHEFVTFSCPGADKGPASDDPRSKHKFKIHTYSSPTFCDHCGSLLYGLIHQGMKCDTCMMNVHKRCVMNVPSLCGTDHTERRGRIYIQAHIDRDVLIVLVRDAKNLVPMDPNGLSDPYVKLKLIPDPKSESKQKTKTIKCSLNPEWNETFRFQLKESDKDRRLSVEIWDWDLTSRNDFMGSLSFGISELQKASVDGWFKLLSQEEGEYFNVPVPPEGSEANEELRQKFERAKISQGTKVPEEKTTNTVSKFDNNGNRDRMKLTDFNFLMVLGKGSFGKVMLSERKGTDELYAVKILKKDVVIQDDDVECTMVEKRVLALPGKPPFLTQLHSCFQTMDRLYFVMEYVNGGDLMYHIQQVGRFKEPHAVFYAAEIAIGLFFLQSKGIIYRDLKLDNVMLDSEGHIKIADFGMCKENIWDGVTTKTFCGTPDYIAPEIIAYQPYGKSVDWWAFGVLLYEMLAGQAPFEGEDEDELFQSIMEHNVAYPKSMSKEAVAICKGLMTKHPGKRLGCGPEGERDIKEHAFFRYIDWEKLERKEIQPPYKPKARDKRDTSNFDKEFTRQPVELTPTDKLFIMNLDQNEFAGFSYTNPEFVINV
row,Compound,IC50 [nM]
1,CCNC[C@H]1Cc2c(C3=C(Nc4ccccc4)C(=O)NC3=O)c3ccccc3n2C1,2.4
2,O=C1NC(=O)C(c2c3n(c4ccccc24)C[C@H](CO)C3)=C1Nc1ccccc1,14
3,CN(C)C[C@@H]1Cc2c(C3=C(Nc4ccccc4)C(=O)NC3=O)c3ccccc3n2C1,8
4,CN(C)C[C@H]1CCn2c(c(C3=C(Nc4ccccc4)C(=O)NC3=O)c3ccccc32)C1,2
5,CN(C)C[C@@H]1CCn2c(c(C3=C(Nc4ccccc4)C(=O)NC3=O)c3ccccc32)C1,25
6,CN(C)C[C@@H]1CCc2c(C3=C(Nc4ccccc4)C(=O)NC3=O)c3ccccc3n2C1,6
7,CCN(CC)C[C@H]1Cc2c(C3=C(Nc4ccccc4)C(=O)NC3=O)c3ccccc3n2C1,32
8,CCN(C)C[C@H]1Cc2c(C3=C(Nc4ccccc4)C(=O)NC3=O)c3ccccc3n2C1,5

# More lines, now with the values ahead:
row,IC50 [nM],Compound
1,1.4,NC[C@H]1Cc2c(C3=C(Nc4ccccc4)C(=O)NC3=O)c3ccccc3n2C1
2,7.9,CC(=O)NC[C@H]1Cc2c(C3=C(Nc4ccccc4)C(=O)NC3=O)c3ccccc3n2C1
3,6,O=C1NC(=O)C(c2c3n(c4ccccc24)CC[C@H](CO)C3)=C1Nc1ccccc1
4,17,O=C1NC(=O)C(c2c3n(c4ccccc24)CC[C@@H](CO)C3)=C1Nc1ccccc1
5,2.2,CNC[C@H]1Cc2c(C3=C(Nc4ccccc4)C(=O)NC3=O)c3ccccc3n2C1

# Same assay, conditions: read-out: pIC50 (converted)
row,Compound,IC50 [nM]
1,CN1CCN(CCCn2cc(C3=C(Nc4ccccc4)C(=O)NC3=O)c3ccccc32)CC1,23.4
2,O=C1NC(=O)C(c2cn(CCCN3CCCCC3)c3ccccc23)=C1Nc1ccccc1,17.4

# Second part, the compound after the results:
row,IC50 [nM],Compound
1,41.7,CN(C)CCCCCn1cc(C2=C(Nc3ccccc3)C(=O)NC2=O)c2ccccc21
2,759,COc1cccc(NC2=C(c3c[nH]c4ccccc34)C(=O)NC2=O)c1
3,490,Cc1ccc(NC2=C(c3c[nH]c4ccccc34)C(=O)NC2=O)cc1
4,1480,O=C1NC(=O)C(c2c[nH]c3ccccc23)=C1Nc1cccc(C(F)(F)F)c1
5,2190,Cc1ccccc1NC1=C(c2c[nH]c3ccccc23)C(=O)NC1=O
6,2.04,N=C(N)SCCCn1cc(C2=C(Nc3ccccc3)C(=O)NC2=O)c2ccccc21
